In patent US9662362B2, “Composition and methods for clotting blood” (BYZMED LLC, priority 2009, dated 2017):

Tested on: nose bleeding
Experiment: Nose bleeding after abrasion of the nasal passage, checked by blowing nose and dabbing with tissue
Type: in vivo
Settings: visual check
Source text: Nose bleeding was caused by creating an abrasion to the nasal passage of a subject by use of a cotton swab irritating the nasal passage. The subject then blew their nose vigorously. The first test was to create an abrasion and pinching the nostril with no application of any product. Bleeding was checked at multiple time points, including the after 30 seconds, 60 seconds and 90 seconds by blowing ones nose 3 times and dabbing the area with a tissue to see if there was continued perfuse bleeding. […] After 90 seconds, the first test was then concluded. Next, the effect of glycerin on nose bleeding was determined. Glycerin was applied to the nasal passage after bleeding had started. Bleeding was checked at multiple time points, including the after 30 seconds, 60 seconds and 90 seconds by blowing ones nose 3 times and dabbing the area with a tissue to see if there was continued perfuse bleeding. […] After 90 seconds, the second test was then concluded. The effect of the disclosed clotting agent that included the active ingredients of […] betonica, achillea millefolium, marrubium vulgare, and urtica dioica application on nose bleeding was then determined. Bleeding was checked at multiple time points, including after 30 seconds, 60 seconds and 90 seconds by the subject blowing their nose 3 times and dabbing the area with a tissue to see if there was continued perfuse bleeding. […] After 90 seconds, there was no bleeding in the nasal passage. This part of the test was then concluded.

Measured: bleeding in the nasal passage

OCC(O)CO [Glycerin]
bleeding continued: after 30 seconds, applied to nasal passage after bleeding had started | after 60 seconds (1 minute) | after 90 seconds
